According to ChEMBL document CHEMBL1201862, “PubChem BioAssay data set” (2004):
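In this assay, cells in 96-well plates receive the compound at five concentrations for 48 hours. Endpoints are linearly interpolated between the surrounding concentrations. Abbreviation: GI50, concentration required for 50% inhibition of growth.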 The source made the active and inactive calls. Cut-off read from the data, not from the text of the source: active = GI50 up to about 1.1 µM and inactive = higher.

Experiments:
Test in all cases: growth of human tumour cells (NCI), 48 h
[1] = tested on: HOP-62
[2] = tested on: UACC-62
[3] = tested on: NCI-H226
[4] = tested on: KM12
[5] = tested on: A498
[6] = tested on: COLO 205
[7] = tested on: SK-OV-3
[8] = tested on: DMS-114
[9] = tested on: SF-268
[10] = tested on: HCT-15
[11] = tested on: 786-0
[12] = tested on: LOX IMVI
[13] = tested on: M14
[14] = tested on: ACHN
[15] = tested on: HOP-92
[16] = tested on: NCI-H23
[17] = tested on: A549
[18] = tested on: T47D
[19] = tested on: NCI-H522
[20] = tested on: Malme-3M

SMILES | GI50 [1] | GI50 [2] | GI50 [3] | GI50 [4] | GI50 [5] | GI50 [6] | GI50 [7] | GI50 [8] | GI50 [9] | GI50 [10] [µM] | GI50 [11] | GI50 [12] | GI50 [13] | GI50 [14] | GI50 [15] | GI50 [16] | GI50 [17] | GI50 [18] | GI50 [19] | GI50 [20]
C=C(C)C(=O)/N=C(\N)NC#N | > 63.1 µM (inactive) | 34.7 µM (inactive) | 145 µM (inactive) | 59 µM (inactive) | > 46.5 µM (inactive) | 49.2 µM (inactive) | 170 µM (inactive) | 30.5 µM (inactive) | 27.1 µM (inactive) | 44.6 | 37.8 µM (inactive) | 33 µM (inactive) | 45.3 µM (inactive) | 138 µM (inactive) | 14.2 µM (inactive) | 72.3 µM (inactive) | 168 µM (inactive) | 14.3 µM (inactive) | 5.81 µM (inactive) | 24.8 µM (inactive)
CCN(CC)CCNc1ccc2ncn3c4cc(O)ccc4c(=O)c1c23 | 4.85 µM (inactive) | 5.65 µM (inactive) | 2.82 µM (inactive) | 4.61 µM (inactive) | 4.86 µM (inactive) | 2.41 µM (inactive) | 9.62 µM (inactive) | 4.29 µM (inactive) | 2.09 µM (inactive) | 3.65 | 2.48 µM (inactive) | 1.87 µM (inactive) | 4.5 µM (inactive) | 1.61 µM (inactive) | 0.519 µM (active) | 3.55 µM (inactive) | 3.31 µM (inactive) | – | 1.22 µM (inactive) | 3.97 µM (inactive)
COC1/C=C\C=C(/C)C(=O)Nc2cc3nc4ccc(Br)cc4oc-3c(c2=O)CC(C)CC(OC)C(O)C(C)/C=C(\C)C1OC(N)=O (stereo not given) | 4.1 µM (inactive) | 0.0391 µM (active) | 1.75 µM (inactive) | 2.26 µM (inactive) | 13.5 µM (inactive) | 0.01 µM (active) | 0.129 µM (active) | 0.0604 µM (active) | 0.499 µM (active) | 0.142 | 0.0227 µM (active) | 0.0565 µM (active) | 0.0453 µM (active) | 0.21 µM (active) | 0.0134 µM (active) | – | 3.61 µM (inactive) | 0.00277 µM (active) | 0.01 µM (active) | 0.0179 µM (active)
N#Cc1cccc(N2C(=O)C3C4C=CC(C3C2=O)C2C(=O)N(c3cccc(C#N)c3)C(=O)C42)c1 (stereo not given) | 18.3 µM (inactive) | 54 µM (inactive) | 62.1 µM (inactive) | > 56.2 µM (inactive) | 22.4 µM (inactive) | > 63.1 µM (inactive) | 17.1 µM (inactive) | 16.3 µM (inactive) | 19.8 µM (inactive) | > 63.1 | 33.1 µM (inactive) | 61.9 µM (inactive) | 59 µM (inactive) | 40.7 µM (inactive) | 15.2 µM (inactive) | 27.6 µM (inactive) | 51.2 µM (inactive) | > 31.6 µM (inactive) | 22.7 µM (inactive) | 53.6 µM (inactive)
CN1C(=O)CC2(C)c3cc(O)cc(Br)c3N(C)C12 (stereo not given) | > 100 µM (inactive) | 81.5 µM (inactive) | > 100 µM (inactive) | > 100 µM (inactive) | > 100 µM (inactive) | > 100 µM (inactive) | > 100 µM (inactive) | > 100 µM (inactive) | > 100 µM (inactive) | > 100 | > 100 µM (inactive) | > 100 µM (inactive) | > 100 µM (inactive) | > 100 µM (inactive) | > 100 µM (inactive) | > 100 µM (inactive) | > 100 µM (inactive) | – | > 100 µM (inactive) | > 100 µM (inactive)
CC(=O)Nc1ccccc1S(=O)(=O)c1ccccc1 | > 100 µM (inactive) | > 100 µM (inactive) | > 100 µM (inactive) | > 100 µM (inactive) | > 100 µM (inactive) | > 100 µM (inactive) | > 100 µM (inactive) | > 100 µM (inactive) | > 100 µM (inactive) | > 100 | > 100 µM (inactive) | > 100 µM (inactive) | > 100 µM (inactive) | > 100 µM (inactive) | 43.9 µM (inactive) | > 100 µM (inactive) | > 100 µM (inactive) | – | > 100 µM (inactive) | > 100 µM (inactive)
CCCCCCCCCCCCC(Br)C(=O)SCCNC(=O)CCNC(=O)[C@@H](O)C(C)(C)COP(=O)(O)OP(=O)(O)OCC1OC(n2cnc3c(N)ncnc32)C(O)C1OP(=O)(O)O (stereo not given in full) | > 56.5 µM (inactive) | > 56.5 µM (inactive) | > 56.5 µM (inactive) | > 56.5 µM (inactive) | > 56.5 µM (inactive) | > 56.5 µM (inactive) | > 56.5 µM (inactive) | > 56.5 µM (inactive) | > 56.5 µM (inactive) | > 56.5 | > 56.5 µM (inactive) | 28.1 µM (inactive) | > 56.5 µM (inactive) | > 56.5 µM (inactive) | > 56.5 µM (inactive) | > 56.5 µM (inactive) | > 56.5 µM (inactive) | – | > 56.5 µM (inactive) | > 56.5 µM (inactive)
